Calls of active or inactive are those of the source. The rule behind the calls is not given here.
Assays:
[1] = Cytotoxicity against MDCK cells assessed as change in cell morphology measured after 72 hrs by microscopic analysis; assay type: cell-based, Canis lupus familiaris; conditions: dog
Trypsin (Homo sapiens) = Trypsin (Homo sapiens) (UniProt P07477+P07478+P35030); assay: Inhibition of human trypsin using Boc-Gln-Ala-Arg-AMC as substrate preincubated for 15 mins followed by substrate addition and measured for 60 mins by fluorescence assay; assay type: protein assay; conditions: time 75.0 min
Influenza A virus [2] = assay: Antiviral activity against Influenza A virus (A/PR 8/34 (H1N1)) infected in MDCK cells assessed as reduction in viral RNA synthesis at 50 uM treated at 1 hr post-infection by RT-qPCR analysis; assay type: functional, organism-based; conditions: A/Puerto Rico/8/1934(H1N1)
[3] = Selectivity index, ratio of MCC for human HeLa cells to EC50 for antiviral activity against Influenza A virus (A/PR 8/34 (H1N1)) infected in human Calu-3 cells; assay type: toxicity, cell-based; conditions: HeLa cells (MCC) and Calu-3 cells (EC50), read-out: Selectivity Index
[4] = biological target: Hemagglutinin (Influenza A virus (A/Puerto Rico/8/1934(H1N1))) (UniProt P03452); assay: Inhibition of Influenza A virus (A/PR 8/34 (H1N1)) hemagglutinin infected in MDCK cells assessed as reduction in virus binding to cell surface; assay type: cell-based
Influenza A virus [5] = assay: Antiviral activity against Influenza A virus (A/PR 8/34 (H1N1)) infected in MDCK cells assessed as reduction in virus-induced cytopathic effect measured after 72 hrs by microscopic analysis; assay type: functional, organism-based; conditions: A/Puerto Rico/8/1934(H1N1)
Influenza A virus (H1N1) [6] = assay: Antiviral activity against Influenza A virus (H1N1) A/Virginia/ATCC3/2009 infected in MDCK cells assessed as reduction in virus-induced cytopathic effect measured after 72 hrs by microscopic analysis; assay type: functional, organism-based
Influenza A virus [7] = assay: Antiviral activity against Influenza A virus (A/PR 8/34 (H1N1)) infected in human Calu-3 cells assessed as reduction in virus-induced cytopathic effect measured after 72 hrs by microscopic analysis; assay type: functional, organism-based; conditions: A/Puerto Rico/8/1934(H1N1), Calu-3, 72 h
Influenza A virus [8] = assay: Antiviral activity against Influenza A virus (A/PR 8/34 (H1N1)) clone 2 infected in MDCK cells assessed as reduction in virus-induced cytopathic effect measured after 72 hrs by microscopic analysis; assay type: functional, organism-based; conditions: A/Puerto Rico/8/1934(H1N1)
Influenza A virus [9] = assay: Antiviral activity against Influenza A virus (A/PR 8/34 (H1N1)) clone 1 infected in MDCK cells assessed as reduction in virus-induced cytopathic effect measured after 72 hrs by microscopic analysis; assay type: functional, organism-based; conditions: A/Puerto Rico/8/1934(H1N1)
Influenza B virus [10] = assay: Antiviral activity against Influenza B virus B/HK/5/72 infected in MDCK cells assessed as reduction in virus induced cytopathic effect after 72 hrs by MTS assay; assay type: functional, organism-based
[11] = Cytotoxicity against MDCK cells assessed as reduction in cell viability measured after 72 hrs by MTS assay; assay type: cell-based, Canis lupus familiaris; conditions: dog
Influenza A virus H3N2 [12] = assay: Antiviral activity against Influenza A virus H3N2 A/HK/7/87 infected in MDCK cells assessed as reduction in virus induced cytopathic effect after 72 hrs by MTS assay; assay type: functional, organism-based
Influenza B virus [13] = assay: Antiviral activity against Influenza B virus B/HK/5/72 infected in MDCK cells assessed as reduction in virus induced cytopathic effect after 72 hrs by microscopy based method; assay type: functional, organism-based
[14] = biological target: Hemagglutinin (Influenza A virus (A/Puerto Rico/8/1934(H1N1))) (UniProt P03452); assay: Inhibition of Influenza A virus (A/PR 8/34 (H1N1)) hemagglutinin transfected in human HeLa cells assessed as reduction in low pH-indued polykaryon formation at 100 uM preincubated for 15 mins followed by pH 5.2 buffer addition and measured after 5 mins by giemsa staining based microscopic analysis; assay type: cell-based; conditions: time 20.0 min
Influenza A virus [15] = assay: Antiviral activity against Influenza A virus (A/PR 8/34 (H1N1)) infected in human Calu-3 cells assessed as reduction in virus-induced cytopathic effect measured after 72 hrs by MTS assay; assay type: functional, organism-based; conditions: A/Puerto Rico/8/1934(H1N1), Calu-3, 72 h
[16] = biological target: T1, Transmembrane protease serine 11D (Homo sapiens) (UniProt O60235); assay: Inhibition of recombinant human N-terminal His-tagged HAT (Ala42 to Ile418 residues) expressed in mouse NSO cells using Boc-Gln-Ala-Arg-AMC as substrate preincubated for 15 mins followed by substrate addition and measured for 60 mins by fluorescence assay; conditions: time 75.0 min
T1 sequence (whole entry): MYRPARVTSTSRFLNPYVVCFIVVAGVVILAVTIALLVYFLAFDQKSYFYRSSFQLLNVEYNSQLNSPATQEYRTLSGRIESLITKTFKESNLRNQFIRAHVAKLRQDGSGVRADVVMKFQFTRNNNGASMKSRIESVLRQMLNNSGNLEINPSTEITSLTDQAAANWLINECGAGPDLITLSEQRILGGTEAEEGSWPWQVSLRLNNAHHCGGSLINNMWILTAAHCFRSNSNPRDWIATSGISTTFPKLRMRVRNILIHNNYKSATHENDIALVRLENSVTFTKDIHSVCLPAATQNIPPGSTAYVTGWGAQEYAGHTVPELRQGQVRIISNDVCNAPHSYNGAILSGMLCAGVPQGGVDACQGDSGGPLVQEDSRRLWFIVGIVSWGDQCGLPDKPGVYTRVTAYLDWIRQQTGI

[17] = biological target: Procathepsin L (Homo sapiens) (UniProt P07711); assay: Inhibition of human liver cathepsin L using Z-Phe-Arg-AMC as substrate preincubated for 15 mins followed by substrate addition and measured for 60 mins by fluorescence assay; conditions: time 75.0 min
[18] = Cytotoxicity against human HeLa cells; assay type: cell-based
[19] = Selectivity index, ratio of MCC for HELF cells to EC50 for antiviral activity against Influenza A virus (A/PR 8/34 (H1N1)) infected in human Calu-3 cells; assay type: toxicity, cell-based; conditions: HELF cells (MCC) and Calu-3 cells (EC50), read-out: Selectivity Index
[20] = biological target: T2, Cathepsin F (Homo sapiens) (UniProt Q9UBX1); assay: Inhibition of recombinant human cathepsin F expressed in baculovirus infected insect cells using Z-Phe-Arg-AMC as substrate preincubated for 15 mins followed by substrate addition and measured for 60 mins by fluorescence assay; conditions: time 75.0 min
T2 sequence (whole entry): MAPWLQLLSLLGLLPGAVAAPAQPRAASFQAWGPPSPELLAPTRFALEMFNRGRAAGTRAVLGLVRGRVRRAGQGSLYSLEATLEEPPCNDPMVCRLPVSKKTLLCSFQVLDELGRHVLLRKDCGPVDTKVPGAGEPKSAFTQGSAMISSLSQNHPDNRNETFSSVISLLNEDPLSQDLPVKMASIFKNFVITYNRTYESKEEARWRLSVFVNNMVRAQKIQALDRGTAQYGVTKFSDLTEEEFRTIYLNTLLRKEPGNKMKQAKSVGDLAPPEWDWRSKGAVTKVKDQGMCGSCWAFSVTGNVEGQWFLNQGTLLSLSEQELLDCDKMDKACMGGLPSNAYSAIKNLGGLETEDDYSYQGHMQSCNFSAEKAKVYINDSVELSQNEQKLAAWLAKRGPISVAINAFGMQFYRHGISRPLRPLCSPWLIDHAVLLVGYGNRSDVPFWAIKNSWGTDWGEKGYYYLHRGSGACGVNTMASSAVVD

[21] = Cytotoxicity against HELF cells; assay type: cell-based; conditions: human
Influenza A virus [22] = assay: Antiviral activity against Influenza A virus (A/PR 8/34 (H1N1)) clone 1 infected in MDCK cells assessed as reduction in virus-induced cytopathic effect measured after 72 hrs by MTS assay; assay type: functional, organism-based; conditions: A/Puerto Rico/8/1934(H1N1)
Influenza A virus (H1N1) [23] = assay: Antiviral activity against Influenza A virus (H1N1) A/Virginia/ATCC3/2009 infected in MDCK cells assessed as reduction in virus-induced cytopathic effect measured after 72 hrs by MTS assay; assay type: functional, organism-based
[24] = Selectivity index, ratio of CC50 for MDCK cells to EC50 for antiviral activity against Influenza A virus (A/Puerto Rico/8/1934(H1N1)) infected in MDCK cells; assay type: toxicity, cell-based; conditions: dog, read-out: Ratio CC50/EC50
Influenza A virus H3N2 [25] = assay: Antiviral activity against Influenza A virus H3N2 A/HK/7/87 infected in MDCK cells assessed as reduction in virus induced cytopathic effect after 72 hrs by microscopy based method; assay type: functional, organism-based
Influenza A virus [26] = assay: Antiviral activity against Influenza A virus (A/PR 8/34 (H1N1)) infected in MDCK cells assessed as reduction in virus-induced cytopathic effect measured after 72 hrs by MTS assay; assay type: functional, organism-based; conditions: A/Puerto Rico/8/1934(H1N1)
Influenza A virus [27] = assay: Antiviral activity against Influenza A virus (A/PR 8/34 (H1N1)) clone 2 infected in MDCK cells assessed as reduction in virus-induced cytopathic effect measured after 72 hrs by MTS assay; assay type: functional, organism-based; conditions: A/Puerto Rico/8/1934(H1N1)
[28] = biological target: Cathepsin B (Homo sapiens) (UniProt P07858); assay: Inhibition of human liver cathepsin B using Z-Phe-Arg-AMC as substrate preincubated for 15 mins followed by substrate addition and measured for 60 mins by fluorescence assay; conditions: time 75.0 min
[29] = biological target: Hemagglutinin (Influenza A virus (A/Puerto Rico/8/1934(H1N1))) (UniProt P03452); assay: Inhibition of Influenza A virus (A/PR 8/34 (H1N1)) hemagglutinin transfected in human HeLa cells assessed as reduction in low pH-indued polykaryon formation preincubated for 15 mins followed by pH 5.2 buffer addition and measured after 5 mins by giemsa staining based microscopic analysis; assay type: cell-based; conditions: time 20.0 min

Chain of Hemagglutinin (Influenza A virus (A/Puerto Rico/8/1934(H1N1))) (P03452 whole entry): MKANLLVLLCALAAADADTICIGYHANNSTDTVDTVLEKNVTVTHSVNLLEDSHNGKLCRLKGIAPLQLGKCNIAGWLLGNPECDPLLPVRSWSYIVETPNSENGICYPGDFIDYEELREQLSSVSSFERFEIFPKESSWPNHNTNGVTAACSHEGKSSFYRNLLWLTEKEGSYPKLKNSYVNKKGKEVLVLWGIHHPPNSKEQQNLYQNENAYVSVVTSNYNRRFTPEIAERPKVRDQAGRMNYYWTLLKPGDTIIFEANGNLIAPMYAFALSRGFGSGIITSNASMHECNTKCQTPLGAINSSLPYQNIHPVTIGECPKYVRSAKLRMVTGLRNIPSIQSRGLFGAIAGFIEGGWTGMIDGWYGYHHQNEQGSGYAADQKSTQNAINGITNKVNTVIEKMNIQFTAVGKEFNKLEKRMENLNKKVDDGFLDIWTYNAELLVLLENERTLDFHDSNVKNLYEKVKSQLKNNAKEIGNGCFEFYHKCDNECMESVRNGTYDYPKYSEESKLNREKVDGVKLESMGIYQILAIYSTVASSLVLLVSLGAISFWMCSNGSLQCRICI
Chain of Procathepsin L (Homo sapiens) (P07711 114-333 limits assumed): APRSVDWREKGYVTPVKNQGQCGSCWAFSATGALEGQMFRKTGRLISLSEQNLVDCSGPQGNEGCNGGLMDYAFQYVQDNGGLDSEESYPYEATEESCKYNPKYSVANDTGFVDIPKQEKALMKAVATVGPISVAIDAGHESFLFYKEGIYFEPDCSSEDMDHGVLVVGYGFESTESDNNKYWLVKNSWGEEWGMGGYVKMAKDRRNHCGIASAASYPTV

COC(=O)C[C@H](NC(=O)OC(C)(C)C)C(=O)N(Cc1ccc(F)cc1)C1(C(=O)NCc2ccccc2)CCN(Cc2ccccc2)CC1
MCC at 72 h [1]: > 100 µM | inhibition (Trypsin (Homo sapiens)): inactive | Activity (Influenza A virus [2]): Active | selectivity ratio [3]: ≥ 30 | inhibition [4]: inactive | EC50 (Influenza A virus [5]): 1.9 µM | Activity (Influenza A virus (H1N1) [6]): inactive | EC50 (Influenza A virus [7]): 1.8 µM | EC50 (Influenza A virus [8]): > 100 µM | EC50 (Influenza A virus [9]): > 100 µM | Activity (Influenza B virus [10]): inactive | CC50 at 72 h [11]: > 100 µM | Activity (Influenza A virus H3N2 [12]): inactive | Activity (Influenza B virus [13]): inactive | inhibition [14]: 100% | EC50 (Influenza A virus [15]): 3 µM | inhibition [16]: inactive | inhibition [17]: inactive | MCC [18]: 100 µM | selectivity ratio [19]: ≥ 30 | inhibition [20]: inactive | MCC [21]: 100 µM | EC50 (Influenza A virus [22]): > 100 µM | Activity (Influenza A virus (H1N1) [23]): inactive | selectivity ratio [24]: 18 | Activity (Influenza A virus H3N2 [25]): inactive | EC50 (Influenza A virus [26]): 2.7 µM | EC50 (Influenza A virus [27]): > 100 µM | inhibition [28]: inactive | inhibition [29]: Dose-dependent effect

From ChEMBL document CHEMBL4680243, “N-benzyl 4,4-disubstituted piperidines as a potent class of influenza H1N1 virus inhibitors showing a novel mechanism of hemagglutinin fusion peptide interaction” (Eur J Med Chem, 2020)
